Data taken from US20130210623A1, “PESTICIDAL MIXTURES INCLUDING ISOXAZOLINE DERIVATIVES” (SYNGENTA CROP PROTECTION LLC, priority 2010, published 2013).

How the values were obtained:
[1] = tested on: Heliothis virescens (Tobacco Budworm); assay: Heliothis virescens egg/larval mortality on artificial diet, 24-well microtiter plate; type: in vivo; conditions: 4 days
Method: Heliothis virescens (Tobacco Budworm)
Eggs (0-24 h old) are placed in 24-well microtiter plate on artificial diet and treated with test solutions (DMSO) by pipetting. After an incubation period of 4 days, samples are checked for larval mortality.

[2] = tested on: Tetranychus urticae (Two-Spotted Spider Mite); assay: Tetranychus urticae mixed population mortality on sprayed bean leaf discs; type: in vivo
Excerpt: Tetranychus urticae (Two-Spotted Spider Mite)
Bean leaf discs on agar in 24-well microtiter plates are sprayed with test solutions (DMSO). After drying, the leaf discs are infested with mite populations of mixed ages. 8 days later, discs are checked for mixed population mortality.

For CC1(C)[C@H](C(=O)O[C@H](C#N)c2cccc(Oc3ccccc3)c2)[C@@H]1/C=C(\Cl)C(F)(F)F (racemic) [Lambda Cyhalothrin, lambda-cyhalothrin], which “AVERAGE DEAD IN % Lambda Cyhalothrin” value ([1]; Table 2, Lambda Cyhalothrin alone 0.0125 ppm AI) is on record?
Its value is 0%.

And the “AVERAGE DEAD IN % Lambda Cyhalothrin” value ([1]; Table 2, Lambda Cyhalothrin alone 0.025 ppm AI)?
The value was 0%.

What about the “AVERAGE DEAD IN % Lambda Cyhalothrin” value ([1]; Table 2, Lambda Cyhalothrin alone 0.05 ppm AI) of the same compound?
The value was 0%.

And the “AVERAGE DEAD IN % Lambda Cyhalothrin” value ([1]; Table 2, Lambda Cyhalothrin alone 0.1 ppm AI)?
Its value is 50%.

What about the “AVERAGE DEAD IN % Lambda Cyhalothrin” value ([1]; Table 2, Lambda Cyhalothrin alone 0.2 ppm AI) of the same compound?
Its value is 80%.

And the “AVERAGE DEAD IN % Lambda Cyhalothrin” value ([1]; Table 2, Lambda Cyhalothrin alone 0.4 ppm AI)?
Its value is 90%.

What about the “AVERAGE DEAD IN % Lambda Cyhalothrin” value ([2]; Table 6, Lambda Cyhalothrin alone 6.25 ppm AI, 8 days) of the same compound?
Its value is 0%.

And the “AVERAGE DEAD IN % Lambda Cyhalothrin” value ([2]; Table 6, Lambda Cyhalothrin alone 12.5 ppm AI, 8 days)?
The value was 50%.

What about the “AVERAGE DEAD IN % Lambda Cyhalothrin” value ([2]; Table 6, Lambda Cyhalothrin alone 25 ppm AI, 8 days) of the same compound?
The value was 90%.

What about the “AVERAGE DEAD IN % Lambda Cyhalothrin” value ([2]; Table 6, Lambda Cyhalothrin alone 50 ppm AI, 8 days) of the same compound?
The value was 85%.

abamectin was tested. Which “AVERAGE DEAD IN % Abamectin” value ([1]; Table 1, Abamectin alone 0.1 ppm AI) did it give?
The value was 0%.

What about the “AVERAGE DEAD IN % Abamectin” value ([1]; Table 1, Abamectin alone 0.2 ppm AI) of the same compound?
The value was 0%.

What about the “AVERAGE DEAD IN % Abamectin” value ([1]; Table 1, Abamectin alone 0.4 ppm AI) of the same compound?
Its value is 10%.

What about the “AVERAGE DEAD IN % Abamectin” value ([1]; Table 1, Abamectin alone 0.8 ppm AI) of the same compound?
The value was 65%.

What about the “AVERAGE DEAD IN % Abamectin” value ([1]; Table 1, Abamectin alone 1.6 ppm AI) of the same compound?
Its value is 90%.

And the “AVERAGE DEAD IN % Abamectin” value ([1]; Table 1, Abamectin alone 3.2 ppm AI)?
Its value is 90%.

And the “AVERAGE DEAD IN % Abamectin” value ([2]; Table 5, Abamectin alone 0.0125 ppm AI, 8 days)?
The value was 0%.

What about the “AVERAGE DEAD IN % Abamectin” value ([2]; Table 5, Abamectin alone 0.025 ppm AI, 8 days) of the same compound?
The value was 25%.

And the “AVERAGE DEAD IN % Abamectin” value ([2]; Table 5, Abamectin alone 0.05 ppm AI, 8 days)?
The value was 55%.

And the “AVERAGE DEAD IN % Abamectin” value ([2]; Table 5, Abamectin alone 0.1 ppm AI, 8 days)?
The value was 55%.

What about the “AVERAGE DEAD IN % Abamectin” value ([2]; Table 5, Abamectin alone 0.2 ppm AI, 8 days) of the same compound?
Its value is 60%.

Which results are given for Cc1cc(C2=NO[C@@](c3cc(Cl)cc(Cl)c3)(C(F)(F)F)C2)ccc1C(=O)NCC(=O)NCC(F)(F)F [I-A2]?
AVERAGE DEAD IN % COMPOUND I-A2 ([1]; Table 1, I-A2 alone 0.025 ppm AI): 0%; AVERAGE DEAD IN % COMPOUND I-A2 ([1]; Table 1, I-A2 alone 0.05 ppm AI): 0%; AVERAGE DEAD IN % COMPOUND I-A2 ([1]; Table 1, I-A2 alone 0.1 ppm AI): 5%; AVERAGE DEAD IN % COMPOUND I-A2 ([1]; Table 1, I-A2 alone 0.2 ppm AI): 75%; AVERAGE DEAD IN % COMPOUND I-A2 ([1]; Table 1, I-A2 alone 0.4 ppm AI): 94%; AVERAGE DEAD IN % COMPOUND I-A2 ([1]; Table 1, I-A2 alone 0.8 ppm AI): 99%; AVERAGE DEAD IN % COMPOUND I-A2 ([1]; Table 2, I-A2 alone 0.025 ppm AI): 0%; AVERAGE DEAD IN % COMPOUND I-A2 ([1]; Table 2, I-A2 alone 0.05 ppm AI): 0%; AVERAGE DEAD IN % COMPOUND I-A2 ([1]; Table 2, I-A2 alone 0.1 ppm AI): 5%; AVERAGE DEAD IN % COMPOUND I-A2 ([1]; Table 2, I-A2 alone 0.2 ppm AI): 75%; AVERAGE DEAD IN % COMPOUND I-A2 ([1]; Table 2, I-A2 alone 0.4 ppm AI): 94%; AVERAGE DEAD IN % COMPOUND I-A2 ([1]; Table 2, I-A2 alone 0.8 ppm AI): 99%; AVERAGE DEAD IN % COMPOUND I-A2 ([1]; Table 3, I-A2 alone 0.05 ppm AI): 0%; AVERAGE DEAD IN % COMPOUND I-A2 ([1]; Table 3, I-A2 alone 0.1 ppm AI): 0%; AVERAGE DEAD IN % COMPOUND I-A2 ([1]; Table 3, I-A2 alone 0.2 ppm AI): 73%; AVERAGE DEAD IN % COMPOUND I-A2 ([1]; Table 3, I-A2 alone 0.4 ppm AI): 89%; AVERAGE DEAD IN % COMPOUND I-A2 ([1]; Table 3, I-A2 alone 0.8 ppm AI): 98%; AVERAGE DEAD IN % COMPOUND I-A2 ([1]; Table 4, I-A2 alone 0.05 ppm AI): 0%; AVERAGE DEAD IN % COMPOUND I-A2 ([1]; Table 4, I-A2 alone 0.1 ppm AI): 0%; AVERAGE DEAD IN % COMPOUND I-A2 ([1]; Table 4, I-A2 alone 0.2 ppm AI): 73%; AVERAGE DEAD IN % COMPOUND I-A2 ([1]; Table 4, I-A2 alone 0.4 ppm AI): 89%; AVERAGE DEAD IN % COMPOUND I-A2 ([1]; Table 4, I-A2 alone 0.8 ppm AI): 98%; AVERAGE DEAD IN % COMPOUND I-A2 ([2]; Table 5, I-A2 alone 0.1 ppm AI, 8 days): 17%; AVERAGE DEAD IN % COMPOUND I-A2 ([2]; Table 5, I-A2 alone 0.2 ppm AI, 8 days): 83%; AVERAGE DEAD IN % COMPOUND I-A2 ([2]; Table 5, I-A2 alone 0.4 ppm AI, 8 days): 100%; AVERAGE DEAD IN % COMPOUND I-A2 ([2]; Table 6, I-A2 alone 0.1 ppm AI, 8 days): 17%; AVERAGE DEAD IN % COMPOUND I-A2 ([2]; Table 6, I-A2 alone 0.2 ppm AI, 8 days): 83%; AVERAGE DEAD IN % COMPOUND I-A2 ([2]; Table 6, I-A2 alone 0.8 ppm AI, 8 days): 100%; AVERAGE DEAD IN % COMPOUND I-A2 ([2]; Table 7, I-A2 alone 0.025 ppm AI, 0 * = 0% control assumed since control at the higher rate was also 0%): 0 * %; AVERAGE DEAD IN % COMPOUND I-A2 ([2]; Table 7, I-A2 alone 0.05 ppm AI, 0 * = 0% control assumed since control at the higher rate was also 0%): 0 * %; AVERAGE DEAD IN % COMPOUND I-A2 ([2]; Table 7, I-A2 alone 0.1 ppm AI, 8 days): 0%; AVERAGE DEAD IN % COMPOUND I-A2 ([2]; Table 7, I-A2 alone 0.2 ppm AI, 8 days): 85%; AVERAGE DEAD IN % COMPOUND I-A2 ([2]; Table 7, I-A2 alone 0.4 ppm AI, 8 days): 95%; AVERAGE DEAD IN % COMPOUND I-A2 ([2]; Table 8, I-A2 alone 0.1 ppm AI, 8 days): 0%; AVERAGE DEAD IN % COMPOUND I-A2 ([2]; Table 8, I-A2 alone 0.2 ppm AI, 8 days): 85%; AVERAGE DEAD IN % COMPOUND I-A2 ([2]; Table 8, I-A2 alone 0.4 ppm AI, 8 days): 95%

How did the “AVERAGE DEAD IN % Spirotetramat” value ([1]; Table 3, Spirotetramat alone 25 ppm AI) turn out when CCOC(=O)OC1=C(c2cc(C)ccc2C)C(=O)N[C@]12CC[C@@H](OC)CC2 [Spirotetramat, spirotetramat] was run?
The value was 10%.

And the “AVERAGE DEAD IN % Spirotetramat” value ([1]; Table 3, Spirotetramat alone 50 ppm AI)?
Its value is 0%.

What about the “AVERAGE DEAD IN % Spirotetramat” value ([1]; Table 3, Spirotetramat alone 100 ppm AI) of the same compound?
The value was 0%.

What about the “AVERAGE DEAD IN % Spirotetramat” value ([1]; Table 3, Spirotetramat alone 200 ppm AI) of the same compound?
The value was 0%.

What about the “AVERAGE DEAD IN % Spirotetramat” value ([1]; Table 3, Spirotetramat alone 400 ppm AI) of the same compound?
The value was 15%.

And the “AVERAGE DEAD IN % Spirotetramat” value ([1]; Table 3, Spirotetramat alone 800 ppm AI)?
The value was 80%.

What about the “AVERAGE DEAD IN % Spirotetramat” value ([2]; Table 7, Spirotetramat alone 12.5 ppm AI, 8 days) of the same compound?
Its value is 75%.

And the “AVERAGE DEAD IN % Spirotetramat” value ([2]; Table 7, Spirotetramat alone 25 ppm AI, 8 days)?
The value was 85%.

And the “AVERAGE DEAD IN % Spirotetramat” value ([2]; Table 7, Spirotetramat alone 50 ppm AI, 8 days)?
The value was 90%.

What about the “AVERAGE DEAD IN % Spirotetramat” value ([2]; Table 7, Spirotetramat alone 100 ppm AI, 8 days) of the same compound?
The value was 90%.

What about the “AVERAGE DEAD IN % Spirotetramat” value ([2]; Table 7, Spirotetramat alone 200 ppm AI, 8 days) of the same compound?
The value was 90%.

Which “AVERAGE DEAD IN % Clothianidin” value ([1]; Table 4, Clothianidin alone 1.5 ppm AI) does the source give for CN/C(=N\[N+](=O)[O-])NCc1cnc(Cl)s1 [Clothianidin, clothianidin] here?
Its value is 0%.

And the “AVERAGE DEAD IN % Clothianidin” value ([1]; Table 4, Clothianidin alone 3 ppm AI)?
The value was 0%.

What about the “AVERAGE DEAD IN % Clothianidin” value ([1]; Table 4, Clothianidin alone 6 ppm AI) of the same compound?
The value was 25%.

And the “AVERAGE DEAD IN % Clothianidin” value ([1]; Table 4, Clothianidin alone 12 ppm AI)?
The value was 50%.

What about the “AVERAGE DEAD IN % Clothianidin” value ([1]; Table 4, Clothianidin alone 24 ppm AI) of the same compound?
The value was 85%.

And the “AVERAGE DEAD IN % Clothianidin” value ([2]; Table 8, Clothianidin alone 50 ppm AI, 8 days)?
The value was 0%.

And the “AVERAGE DEAD IN % Clothianidin” value ([2]; Table 8, Clothianidin alone 100 ppm AI, 8 days)?
The value was 0%.

What about the “AVERAGE DEAD IN % Clothianidin” value ([2]; Table 8, Clothianidin alone 200 ppm AI, 8 days) of the same compound?
The value was 0%.

What about the “AVERAGE DEAD IN % Clothianidin” value ([2]; Table 8, Clothianidin alone 400 ppm AI, 8 days) of the same compound?
The value was 0%.

What about the “AVERAGE DEAD IN % Clothianidin” value ([2]; Table 8, Clothianidin alone 800 ppm AI, 8 days) of the same compound?
The value was 0%.
